Results taken from patent US20240197700A1, “Methods and Compositions for Treating Lysosomal Storage Disorders” (Sanford Health, priority 2021, published 2024).
Entries after “also recorded” stand apart in the source; their conditions may differ.

Key:
Cln3^Δex7/8 mice [1] = experiment: Astroglial activation (GFAP) in brain of Cln3^Δex7/8 mice; assay type: in vivo, mouse
Description: (§1) FIG. 22(A-B). Short-term chronic treatment with semaglutide impacts glial activation in Cln3^Δex7/8 mice. Beginning at wean, wild type and Cln3^Δex7/8 mice were treated with vehicle or semaglutide 2.571 μg/mouse, 25.71 μg/mouse) through subcutaneous injections three times a week until sacrifice at 16 weeks. Upon sacrifice, a hemisphere of the brain was sectioned at 50 microns on a vibratome; DAB staining immunohistochemistry was then performed using anti-GFAP (Dako, Z0334; 1:5000), anti-CD68 (AbD Serotec, MCA1957; 1:2000), anti-rabbit biotinylated (Vector Labs, BA-1000 1:1000), and anti-rat (Vector Labs, BA-9400 1:1000). Sections were imaged and analyzed using an Aperio Digital Pathology Slide Scanner (AT2) and associated software. Images were extracted from S1BF of the somatosensory cortex, the CA3 of the hippocampus, and the VPM/VPL of the thalamus, key brain regions for Batten disease pathology. Percent area of immunoreactivity were quantified using a threshold analysis in ImageJ™. Statistical analyses were performed using GraphPad Prism™ (v8.4.3; San Diego, CA). […] Increasing concentrations of semaglutide and corresponding genotypes are shown along the x-axis. Nested one-way ANOVA. Mean±S.E.M. Sidak's multiple comparisons test. Compared to the wild type vehicle treated group #p<0.05, ##p<0.01, ###p<0.001, ####p<0.0001. Compared to mutant vehicle treated group *p<0.05, **p<0.01, ***p<0.001, ****p<0.0001.
(§2) Specific experimental details are included in figure legends. In general, after collection and preparation, MEFs and PNCs were dosed with vehicle or AF38469 (40 nM, 400 nM. or 4 μM) on DIV3 and DIV5. On DIV7, cells were treated with the following dyes: Hoechst 33342 (1:1000 dilution), LysoTrackerT™ Red DND-99 (1:10,000 dilution), fixed, and imaged. Mice were given vehicle or AF38469 (78.125 μg/ml, 3.125 μg/ml, 0.3125 μg/ml or 0.03125 μg/ml equating approximately to 250 μg/mouse/day, 10 μg/mouse/day, 1 μg/mouse/day, and […], respectively, given a mouse's daily water intake of approximately 3.2 ml per day) in drinking water beginning at wean. Body weight was measured bi-weekly, and a force actimeter test was performed on Cln2^R207X mice at 10 weeks of age. Body weight was measured every month for Cln3^Δex7/8 mice. At 11 and 16 weeks of age, respectively, Cln2^R207X and Cln3^Δex7/8 mice along with age matched wild type control mice were CO2 euthanized and intracardially perfused with PBS. Brains were collected and placed on a 1 mm sagittal brain block. Brains were sliced at the midline and 3 mm right of the midline. One hemisphere was fixed in 4% PFA and sectioned at 50 microns on a vibratome. Immunohistochemistry was performed on free-floating sections. For mitochondrial ATP synthase subunit C (SubC), glial fibrillary acidic protein (GFAP), and cluster of differentiation 68 (CD68) immunolabeling, primary antibodies included anti-SubC (Abcam, ab181243; 1:1000), anti-GFAP (Dako, Z0334; 1:5000), anti-CD68 (AbD Serotec, MCA1957; 1:2000), and secondary antibodies included anti-rabbit biotinylated (Vector Labs, BA-1000 1:1000) and anti-rat (Vector Labs, BA-9400 1:1000). Coverslips were mounted on slides using antifade-mounting media and were stored in the dark before imaging. Sections were imaged and analyzed using an Aperio Digital Pathology Slide Scanner (AT2) and associated software. Images were extracted from S1BF of the somatosensory cortex and the VPM/VPL of the thalamus, with multiple images taken of multiple tissues from each animal.
(§3) Short-term chronic treatment with AF38469 impacts glial activation in Cln3^Δex7/8 mice. Beginning at wean, wild type and Cln3^Δex7/8 mice were treated with vehicle (0.2408% DMSO) or AF38469 (0.03125 μg/ml, 0.3125 μg/ml, 3.125 μg/ml, 78.125 μg/ml) continuously through the drinking water continuing until sacrifice at 16 weeks. […]

Cln3^Δex7/8 mice [2] = experiment: Microglial activation (CD68) in brain of Cln3^Δex7/8 mice; assay type: in vivo, mouse; conditions: for microglial activation (CD68): VPM/VPL of the thalamus and somatosensory cortex
Description: as §1, §2, §3

With `Cc1cccc(NC(=O)c2ccc(C(F)(F)F)cc2C(=O)O)n1` [AF38469, 2-((6-methylpyridin-2-yl)carbamoyl)-5-(trifluoromethyl)benzoic acid] the “astroglial activation (GFAP)” value (Cln3^Δex7/8 mice [1]; 0.03125 μg/ml, 0.3125 μg/ml, VPM/VPL of the thalamus) was “significantly and potently decreased”, the “astroglial activation (GFAP)” value (Cln3^Δex7/8 mice [1]; 0.03125 μg/ml, somatosensory cortex) was “significantly decreased” and the “astroglial activation (GFAP)” value (Cln3^Δex7/8 mice [1]; AF38469 higher doses 3.125 μg/ml, 78.125 μg/ml, VPM/VPL of the thalamus and somatosensory cortex) was “increased or had no impact; also recorded: had no impact”. For the same compound, the GFAP reactivity (Cln3^Δex7/8 mice [1]; lower doses, somatosensory cortex and the thalamus, summary statement) was “significantly decreased”, the “microglial activation (CD68)” value (Cln3^Δex7/8 mice [2]; AF38469 higher doses 3.125 μg/ml, 78.125 μg/ml) was “increased or had no impact; also recorded: had no impact” and the “microglial activation (CD68)” value (Cln3^Δex7/8 mice [2]; AF38469 lower doses 0.03125 μg/ml, 0.3125 μg/ml) was “significantly and potently decreased”.

`CC[C@H](C)[C@H](N)C(=O)NCCN1CCOCC1` [LM11A-31, N-[2-(morpholin-4-yl)ethyl]-L-isoleucinamide] was tested, and the “astroglial activation (GFAP)” value (Cln3^Δex7/8 mice [1]; LM11A-31 0.6 mg/mL, VPM/VPL of the thalamus and somatosensory cortex) was “decreasing trend; also recorded: trends towards decreased levels; also recorded: had no significant decrease”, the “microglial activation (CD68)” value (Cln3^Δex7/8 mice [2]; LM11A-31 0.6 mg/mL) was “had no impact” and the “levels of CD68” value (Cln3^Δex7/8 mice [2]; LM11A-31 0.6 mg/mL, thalamus) was “trends towards decreased levels”.

For semaglutide, the “astrocytosis (GFAP)” value (Cln3^Δex7/8 mice [1]; semaglutide 2.571 μg/mouse, 25.71 μg/mouse s.c., S1BF, CA3, VPM/VPL) was “had no significant effect”, the “accumulation of microgliosis (CD68)” value (Cln3^Δex7/8 mice [2]; semaglutide 2.571 μg/mouse, 25.71 μg/mouse s.c., S1BF, CA3, VPM/VPL, vs vehicle Cln3^Δex7/8) was “had no significant effect” and the CD68 immunoreactivity (Cln3^Δex7/8 mice [2]; semaglutide lower dose 2.571 μg/mouse s.c., S1BF, CA3, VPM/VPL, relative to wild type) was “reduced CD68 immunoreactivity to levels indistinguishable from wild type; also recorded: restored CD68 immunoreactivity to wild type levels”.
